One assay deals with HepG2 hepatoma cell line. Kind of assay: Cytotoxicity, MTT assay, HepG2. The note with it: Homo sapiens, 72 h exposure, read-out: HepG2 Cells IC50. Format: cell-based. The protocol:
(§1) All the cell line that were used in this study are (CCD-1064SK) the human normal skin fibroblast and HepG2 hepatoma cell line. The CCD-1064SK and HepG2 cell line was purchased from American Type Culture Collection (ATCC, Manassas, VA, USA). Cells were cultured in Iscove’s medium as recommended from ATCC. Media was supplement with 10% heated fetal bovine serum, 1% of 2 Mm L-glutamine, and (100 IU/mL) penicillin/(100 ug/mL) streptomycin. According to the cells growth profile, cells were seeded with a density of 10 × 10^4 cell/well. Cell viability was determined by trypan blue exclusion using a hemocytometer. For the cytotoxicity assay, cells were washed with phosphate buffer saline (PBS). PBS was decanted and cells detached with 0.025% trypsin-EDTA (EuroClone). Media was added to a volume of 10 mL. The cell suspension was centrifuged at 1000 rpm for 10 min and the pellet was resuspended in 10 mL medium to make a single cell suspension. Viability of the cells was determined by trypan blue exclusion, and it exceeded 90% as counted in a hemocytometer. The cell suspension was diluted afterwards to give the optimal seeding density and 100 uL of the cell suspension was plated in a 96 well plate. Cells were cultured at 37 °C in a humidified atmosphere of 5% CO2. After 24 h the cells were treated with different concentrations of tested compounds, (each compound was initially dissolved in DMSO). Initially, 100 and 50 ug/mL of each extract were tested. The active compounds were those which gave less than 50% survival at exposure time 72 h. The final dilution for all prepared concentrations used for treating the cells contained not more than 0.01% of the initial solvent (DMSO), this concentration being used in the solvent control wells. At the end of the exposure time, cell growth was analyzed using the MTT assay. MTT assay: After 72 h of incubation, 15 µL of MTT stock solution (Promega) (5 mg/mL in sterile phosphate-buffered saline, pH 7.4) was added to each well. After the cells were incubated for 3 h in the presence of MTT, 100 µL of solubilizing stop solution was added to each well to solubilize the dark violet formazan crystals. The optical densities at 570 nm were then measured using a microplate reader. The results were expressed as a percentage of cell viability with respect to a control corresponding to untreated cells.
(Tetrazolium dyes change colour on reduction, which living cells bring about.)

For assay [1], the system named is CCD-1064Sk fibroblast cell line. Kind of assay: Cytotoxicity, MTT assay, fibroblasts. Format: cell-based. The note with it: Homo sapiens, 72 h exposure. The protocol: as §1
Assay [2] deals with T1, porcine PL (pancreatic lipase) (Sus scrofa, UniProt P00591).
T1 construct: Lipase from porcine pancreas, Type II; purchased Sigma Aldrich L3126; host or cells: porcine pancreas (tissue-derived)
T1 sequence (P00591 1-450): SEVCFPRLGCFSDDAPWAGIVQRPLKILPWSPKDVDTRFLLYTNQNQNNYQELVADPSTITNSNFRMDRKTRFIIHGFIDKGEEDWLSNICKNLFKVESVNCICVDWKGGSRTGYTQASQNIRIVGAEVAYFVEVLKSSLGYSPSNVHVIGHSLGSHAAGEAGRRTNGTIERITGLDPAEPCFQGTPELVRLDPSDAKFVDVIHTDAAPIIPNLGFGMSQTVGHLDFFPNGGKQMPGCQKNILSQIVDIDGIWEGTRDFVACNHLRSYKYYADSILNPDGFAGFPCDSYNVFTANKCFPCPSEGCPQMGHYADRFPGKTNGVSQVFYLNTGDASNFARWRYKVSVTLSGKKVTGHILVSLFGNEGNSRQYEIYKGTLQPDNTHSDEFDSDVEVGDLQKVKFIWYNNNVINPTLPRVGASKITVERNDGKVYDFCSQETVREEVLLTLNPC
Kind of assay: GC-FID based anti-lipase assay (phenyl acetate hydrolysis). Format: biochemical. The note with it: for IC50: porcine pancreatic lipase, phenyl acetate substrate, GC-FID, read-out: IC50 (nM) against PL. The protocol:
All chemicals and solvents were purchased from commercial suppliers (Amman, Jordan) and used without further purification. Anhydrous solvents were distilled from sodium and benzophenone before use. NMR (The University of Jordan, Amman, Jordan) spectra were recorded on a Varian 500 MHz spectrometer (500 and 125 MHz for the ^1H and ^13C nuclei, respectively) using CDCl3 as solvents and spectra were referenced to residual solvent as internal standard (for CDCl3 δH 7.26 and δC 77.1). LC-HRMS data for analysis of compounds 3−13 were obtained on an Agilent 6239 HR-ESI-TOFMS (UCSD, San Diego, CA, USA) equipped with a Phenomenex Luna 5 µm C18 100 Å column (4.6 × 250 mm). LCMS data for purity analysis of the synthesized compounds 3−13 were obtained with a Thermo Finnigan Surveyor Autosampler-Plus/LC-PumpPlus/PDA-Plus system and a Thermo Finnigan LCQ Advantage Max mass spectrometer (monitoring m/z 150−2000 in positive ion mode) using a linear gradient of 30–100% H2O/acetonitrile over 30 min; flow rate of 0.9 mL/min (UCSD, San Diego, CA, USA). Semipreparative HPLC (UCSD, San Diego, CA, USA) purification was carried out using a Waters 515 with a Waters 996 photodiode array detector using Empower Pro software. […] Chemical shifts (δ) are given in parts per million (ppm) and coupling constants (J) are reported in Hertz (Hz). The compounds are named in accordance with IUPAC rules as applied by ChemBioDraw Ultra (version 20.1.1) (software provided by the University of Jordan, Amman, Jordan). GCMS analysis: Thermo Scientific Focus gas chromatography coupled to a flame ionization […] was used to analyze the samples. A total of 1.0 µL sample was injected into the Thermo Scientific Focus GC-FID equipped with a split/spitless injector (split ratio, 2.5). The column was HP-5 (DP-5) capillary column stationary phase. Helium was the carrier gas at a flow rate of 1.0 mL/min. Linear temperature program was applied from 100 to 250 °C at 5 °C/min. The specific run time of analysis for each sample was […]. The temperatures of the injector base and the detector were maintained at 250 °C, 250 °C respectively. Lipase from porcine pancreas, Type II, 100–650 units/mg protein (product# L3126) was purchased from Sigma Aldrich (Amman, Jordan).
All tested compounds were dissolved in DMSO to prepare a stock solution (of each compound) having a known concentration. A proper aliquot of each tasted compound was obtained by further dilution of the stock. Samples were prepared and analyzed for their phenyl acetate content by adopting an internal standard procedure. the sample analysis performed using GC-FID. For each sample, 50 µL of 2 mg/mL pancreatic lipase, phenyl acetate (1 mM), and 50 µL of each candidate inhibitor. […] Subsequently, the samples were left for overall time of 20 min vortex and centrifuged for approximately 3 min. For extraction of the phenyl acetate remain in the aqueous layer the nonpolar solvent chloroform containing the internal standard added, then vortex and centrifuged and the chloroform removed to another tube for the GC-FID analysis.
The linearity, RSD, LOD, and LOQ were evaluated for the method of analysis. […] The LOD and LOQ both was measured using the signal-to-noise method. The ratio of the analyte signal to the peak-to-peak noise signal around it was measured of (3:1) which is generally accepted signal-to-noise ratio (S/N) for the LOD estimation.

The test system of a further assay is dietary fat absorption. The note with it: therapeutic dose; cited from earlier work.

As a reminder, the IC50 is the midpoint of a concentration-inhibition curve. Turning to `CCCCCCCCCCCC(=O)N[C@@H](Cc1ccc(F)cc1F)C(=O)[C@@]1(C)CO1` [Analogue 3, N-((S)-3-(2,4-difluorophenyl)-1-((R)-2-methyloxiran-2-yl)-1-oxopropan-2-yl)dodecanamide], the values for the half-inhibitory concentration (IC50) (in the assay on HepG2 hepatoma cell line; in assay [1]; in assay [2]) were 2600 nM, more than 15000 nM and 29.3 ± 2.4 nM, respectively.
`CCCCCCCCCCCC(=O)N[C@@H](CCCC)C(=O)N[C@@H](Cc1ccc(F)cc1F)C(=O)[C@@]1(C)CO1` [Analogue 4, N-((S)-1-(((S)-3-(2,4-difluorophenyl)-1-((R)-2-methyloxiran-2-yl)-1-oxopropan-2-yl)amino)-1-oxohexan-2-yl)dodecanamide]: the IC50 with HepG2 hepatoma cell line is 2320 nM; in assay [1], more than 15000 nM; in assay [2], 9.3 ± 2.5 nM.
In the case of `CC(C)(C)OC(=O)N[C@@H](Cc1ccc(F)cc1F)C(=O)[C@@]1(C)CO1` [Analogue 5, tert-butyl ((S)-3-(2,4-difluorophenyl)-1-((R)-2-methyloxiran-2-yl)-1-oxopropan-2-yl)carbamate], the concentration for half-maximal inhibition (IC50) was more than 15000 nM in the assay with HepG2 hepatoma cell line, more than 15000 nM in assay [1] and 29.4 ± 4.8 nM in assay [2].
With `CC(C)(C)OC(=O)N[C@@H](Cc1ccc(F)cc1)C(=O)[C@@]1(C)CO1` [Analogue 6, tert-butyl ((S)-3-(4-fluorophenyl)-1-((R)-2-methyloxiran-2-yl)-1-oxopropan-2-yl)carbamate], the IC50 in the assay on HepG2 hepatoma cell line was more than 15000 nM; in assay [1], more than 15000 nM; in assay [2] it was 46.4 ± 3.7 nM.
In the case of `CC(C)(C)OC(=O)N[C@@H](Cc1ccccc1)C(=O)[C@@]1(C)CO1` [Analogue 7, tert-butyl ((S)-1-((R)-2-methyloxiran-2-yl)-1-oxo-3-phenylpropan-2-yl)carbamate], the half-maximal inhibitory concentration (IC50) with HepG2 hepatoma cell line was more than 15000 nM; in assay [1], more than 15000 nM; in assay [2] it was 49.1 ± 11.4 nM.
Take `CC(C)C[C@H](NC(=O)OC(C)(C)C)C(=O)[C@@]1(C)CO1` [Analogue 8, tert-butyl ((S)-4-methyl-1-((R)-2-methyloxiran-2-yl)-1-oxopentan-2-yl)carbamate]: the concentration for half-maximal inhibition (IC50) is more than 15000 nM with HepG2 hepatoma cell line, more than 15000 nM in assay [1] and 120 ± 15.2 nM in assay [2].
With `C[C@]1(C(=O)[C@@H](N)Cc2ccc(F)cc2F)CO1` [Analogue 9, (S)-2-amino-3-(2,4-difluorophenyl)-1-((R)-2-methyloxiran-2-yl)propan-1-one], the IC50 with HepG2 hepatoma cell line was more than 15000 nM; in assay [1], more than 15000 nM; in assay [2] it was 41.5 ± 7.1 nM.
As to `C[C@]1(C(=O)[C@@H](N)Cc2ccccc2)CO1` [Analogue 10], the IC50 in the assay on HepG2 hepatoma cell line is more than 15000 nM; in assay [1] it was more than 15000 nM; in assay [2] it was 73.1 ± 9.8 nM.
Regarding `CC(C)(C)OC(=O)N[C@@H](Cc1ccc(F)cc1F)C(=O)[C@]1(C)CO1` [Analogue 11, tert-butyl ((S)-3-(2,4-difluorophenyl)-1-((S)-2-methyloxiran-2-yl)-1-oxopropan-2-yl)carbamate], the IC50 in the assay with HepG2 hepatoma cell line was more than 15000 nM; in assay [1], more than 15000 nM; in assay [2] it was 29 ± 4.2 nM.
For the molecule `C=C(C)C(=O)[C@H](Cc1ccc(F)cc1F)NC(=O)OC(C)(C)C` [Analogue 13, tert-butyl (S)-(1-(2,4-difluorophenyl)-4-methyl-3-oxopent-4-en-2-yl)carbamate], the IC50 was more than 15000 nM in the assay with HepG2 hepatoma cell line, more than 15000 nM in assay [1] and more than 10000 nM in assay [2]. Besides, the “inhibition of PL at the highest concentration tested” value in assay [2] (10 µM) is “did not inhibit”.
In the case of `CCCCCC(=O)N[C@H](C(=O)N[C@@H](CCS(C)(=O)=O)C(=O)N[C@@H](CC(C)C)C(=O)[C@@]1(C)CO1)C(C)C` [carmaphycin B (2), carmaphycin B, reference compound], the IC50 in assay [2] turned out to be 25 ± 1.1 nM.
With `CCCCCCCCCCC[C@@H](C[C@@H]1OC(=O)[C@H]1CCCCCC)OC(=O)[C@H](CC(C)C)NC=O` [orlistat (1), orlistat], in the assay with dietary fat absorption, the “inhibition of dietary fat absorption” value was “approximately 30%”.

These data come from PMC9000415, “Discovery of Novel Epoxyketone Peptides as Lipase Inhibitors” (Molecules, 2022).
